Results from article PMC10643403, “Targeting the Schistosoma mansoni nutritional mechanisms to design new antischistosomal compounds” (Scientific Reports, 2023).
In brackets after ≈: the same amount, converted by molar mass. Read-outs that look alike come from different tables or passages of the source. Each block holds one compound with its values, some of them ahead of it.

Tests used:
S. mansoni adult worms = assay: In vitro antischistosomal assay on adult worms; type: cell-based, Schistosoma mansoni; conditions: for Activity against 49-day-old S. mansoni worms at 50 µM: adult worms, initial in vitro trial, 72 h; for EC50: Schistosoma mansoni, based on mortality, after 72 h, 95% confidence interval in square brackets
Procedure: The antischistosomal assay was performed according to the methodology previously described[16],[19],[20]. Briefly, […], were incubated in flat bottom 24-well plates (Corning, New York, NY, USA) in RPMI 1640 culture medium (Vitrocell, Campinas, SP, Brazil) supplemented with 5% inactivated fetal calf serum, antibiotics (100 U/mL penicillin and 100 μg/mL streptomycin), and buffered with HEPES 25 mM (Sigma-Aldrich, St. Louis, MO, USA). Compounds were dissolved in dimethyl sulfoxide (DMSO at a final concentration of 0.5% v/v) and tested at 50 μM using PZQ 2 μM and DMSO 0.5% as positive and negative controls, respectively. Parasites were kept for 72 h (37 °C, 5% CO2, Panasonic, Osaka, Japan) and their viability was assessed using a Motic AE2000 inverted microscope (Vancouver, Canada)[21]. Each experiment was performed in triplicate and repeated at least three times. The negative control (using the highest concentration of DMSO, i.e., 0.5) and positive control (praziquantel 2 µM) were included.
Each concentration was tested in five replicates, and experiments were repeated once.

Vero cells = assay: In vitro cytotoxicity assay (MTT) on Vero cells; type: cell-based, African green monkey; conditions: CC50 on Vero cells divided by EC50 on schistosomes (based on the highest concentration)
Procedure: (§1) The life cycle of S. mansoni (Belo Horizonte strain) is maintained through routine passage through Biomphalaria glabrata snails and Swiss mice at the Research Center on Neglected Diseases (Guarulhos University, SP, Brazil). Both rodents and snails were kept under environmentally controlled conditions (25 °C; humidity of 50%), with free access to food and water. Vero cells were obtained from the American Type Culture Collection (ATCC CCL-81; Manassas, VA, USA). Cells were routinely cultured in Dulbecco’s Modified Eagle Medium (DMEM) supplemented with 5% heat-inactivated fetal bovine serum and antibiotics (100 U/mL penicillin and 100 μg/mL streptomycin) at 37 °C in a humidified atmosphere containing 5% CO2 [17].
(§2) The cytotoxicity of the compounds on the Vero cells was determined by thiazolyl blue tetrazolium bromide (MTT) assay (Sigma-Aldrich) as previously described[21],[24]. […] After 72 h, MTT solution was added to each well and the absorbance at 595 nm was read on a spectrophotometer (Epoch, BioTek Instruments, Winooski, VT, USA).

[1] = In vitro cytotoxicity assay (MTT) on Vero cells; type: cell-based, African green monkey; conditions: African green monkey, Vero cells (ATCC CCL-81); Vero cells; MTT assay; 72 h; read-out: Mammalian cells CC50
Procedure: as §1, §2

Caenorhabditis elegans = type: in vivo; conditions: L4 stage, 24 h
Procedure: Caenorhabditis elegans wild-type (N2 strain), kindly provided by Dr. Carlos E. Winter (University of São Paulo), was routinely cultured at 22 °C on nematode growth medium (NGM) plates seeded with Escherichia coli (strain OP50) as a food source according to standard protocols.
For the drug assessment, the age-synchronized L1 stage was cultivated on standard NGM plates. When at the L4 stage, approximately 25 nematodes were transferred to each well of a 96-wells NGM plates containing the drug of interest at the desired concentration (10, 25, 50, 100, and 200 μM) along with a positive control (levamisole 10 μM) and a negative control (DMSO 0.5%). Nematodes were kept at 22 °C for 24 h, and their viability was verified microscopically using a Motic AE2000 inverted microscope (Vancouver, Canada) equipped with an ultra-high definition (UHD) camera and with a 48-inch 4K-UHD monitor system (LG Electronics, São Paulo, Brazil)[33].

S. mansoni-infected mice = assay: In vivo antiparasitic study in an animal model of schistosomiasis; conditions: 400 mg/kg single oral dose, vs infected untreated control
Procedure: In vivo studies in S. mansoni-infected mice were performed according to standard protocols[20],[26]. Rodents (3 weeks old) were infected subcutaneously with 80 S. mansoni cercariae each and animals were randomly divided into experimental groups (five mice per group). Compounds were dissolved in 2% ethanol in water (v/v) and tested at a single oral dose (400 mg/kg) administered 42 days post-infection[27]. For comparison, praziquantel (400 mg/kg) and a corresponding amount of vehicle were administered to groups of five schistosomes-infected animals in the same period[28],[29]. […] The percentage of worm and egg reduction was calculated by means of the following equation: % reduction = [(value of untreated control group − value of treatment group)/value of untreated control group] × 100%[32]. The nonparametric Kruskal–Wallis test was used to compare the medians of the responses between the treatment and control groups using the GraphPad Prism software (version 8.0; CA, USA). Differences were considered statistically significant at P < 0.05[9].

[2] = test system: cathepsin B1 from Schistosoma mansoni (SmCB1); set-up: method as in ref 2 (Fonseca et al.); conditions: ref 2 (Fonseca et al.), cited from earlier work
[3] = test system: Schistosoma mansoni worms; set-up: method as in ref 1 (Santiago et al.); conditions: after 144 h; target not determined; ref 1 (Santiago et al.); cited from earlier work
[4] = female adult worms, read-out: S. mansoni EC50 Female
[5] = male adult worms, read-out: S. mansoni EC50 Male

melting point: 220 to 224 °C
Compound: Clc1ccc2c(N/N=C/c3ccccc3)ccnc2c1 [GPQF-8Q1, 4-[(2E)-2-benzylidenehydrazinyl]-7-chloroquinoline]
Activity against 49-day-old S. mansoni worms at 50 µM (S. mansoni adult worms): Inactive

Compound: O=[N+]([O-])c1ccc(/C=N/Nc2ccnc3cc(Cl)ccc23)cc1 [GPQF-8Q3, 7-Chloro-4-[(2E)-2-(4-nitrobenzylidene)hydrazinyl]quinoline]
Activity against 49-day-old S. mansoni worms at 50 µM (S. mansoni adult worms): Inactive

Compound: COc1cc(/C=N/Nc2ccnc3cc(Cl)ccc23)ccc1O [GPQF-8Q4, 4-{(E)-[2-(7-chloroquinolin-4-yl)hydrazinylidene]methyl}-2-methoxyphenol]
Activity against 49-day-old S. mansoni worms at 50 µM (S. mansoni adult worms): Inactive

Compound: O=[N+]([O-])c1ccc(/C=N/Nc2ccnc3cc(Cl)ccc23)o1 [GPQF-8Q6, 7-Chloro-4-{(2E)-2-[(5-nitrofuran-2-yl)methylidene]hydrazinyl}quinoline]
Activity against 49-day-old S. mansoni worms at 50 µM (S. mansoni adult worms): Inactive

Compound: Clc1ccc2c(N/N=C/c3cccs3)ccnc2c1 [GPQF-8Q8, 7-Chloro-4-[(2E)-2-(thiophen-2-ylmethylidene)hydrazinyl]quinoline]
SI (selectivity index) (Vero cells): > 5.6 | CC50 at 72 h [1]: > 200 µM | Survival percentage of C. elegans (Caenorhabditis elegans; 10 μM): 100% | Survival percentage of C. elegans (Caenorhabditis elegans; 25 μM): 100% | Survival percentage of C. elegans (Caenorhabditis elegans; 50 μM): 100% | Survival percentage of C. elegans (Caenorhabditis elegans; 100 μM): 100% | Survival percentage of C. elegans (Caenorhabditis elegans; 200 μM): 100% | Activity against 49-day-old S. mansoni worms at 50 µM (S. mansoni adult worms): Active | EC50 (S. mansoni adult worms; [4]): 28.5 µM | EC50 (S. mansoni adult worms; [5]): 35.8 µM | Reduction in worm burden (S. mansoni-infected mice; 42 days post-infection): 50.8% | Reduction in eggs found in feces (S. mansoni-infected mice; Kato-Katz technique): 52.8% | Reduction in immature eggs found in the intestines (S. mansoni-infected mice; oogram): 45.8%

Compound: Cc1ccc(/C=N/Nc2ccnc3cc(Cl)ccc23)cc1 [GPQF-8Q10, 7-Chloro-4-[(2E)-2-(4-methylbenzylidene)hydrazinyl]quinoline]
SI (selectivity index) (Vero cells): > 12.8 | CC50 at 72 h [1]: > 200 µM | Survival percentage of C. elegans (Caenorhabditis elegans; 10 μM): 100% | Survival percentage of C. elegans (Caenorhabditis elegans; 25 μM): 100% | Survival percentage of C. elegans (Caenorhabditis elegans; 50 μM): 100% | Survival percentage of C. elegans (Caenorhabditis elegans; 100 μM): 100% | Survival percentage of C. elegans (Caenorhabditis elegans; 200 μM): 100% | Time to worm mortality (S. mansoni adult worms; 25 µM): ≤ 24 h | Activity against 49-day-old S. mansoni worms at 50 µM (S. mansoni adult worms): Active | EC50 (S. mansoni adult worms; [4]): 15.6 µM | EC50 (S. mansoni adult worms; [5]): 13.3 µM

melting point: 236 to 241 °C
Compound: Fc1ccc(/C=N/Nc2ccnc3cc(Cl)ccc23)cc1 [GPQF-8Q12, 7-Chloro-4-[(2E)-2-(4-fluorobenzylidene)hydrazinyl]quinoline]

melting point: 320 °C (dec.)
Compound: Clc1ccc2c(N/N=C/c3ccc(Cl)c(Cl)c3)ccnc2c1 [GPQF-8Q13, 7-Chloro-4-[(2E)-2-(3,4-dichlorobenzylidene)hydrazinyl]quinoline]
Activity against 49-day-old S. mansoni worms at 50 µM (S. mansoni adult worms): Inactive

Compound: Oc1ccc(/C=N/Nc2ccnc3cc(Cl)ccc23)c(O)c1 [GPQF-8Q14, 4-{(E)-[2-(7-chloroquinolin-4-yl)hydrazinylidene]methyl}benzene-1,3-diol]
Activity against 49-day-old S. mansoni worms at 50 µM (S. mansoni adult worms): Inactive

melting point: 302 to 306 °C
Compound: C/C(=N\Nc1ccnc2cc(Cl)ccc12)c1ccccc1 [GPQF-8Q16, 7-Chloro-4-[(2E)-2-(1-phenylethylidene)hydrazinyl]quinoline]
Activity against 49-day-old S. mansoni worms at 50 µM (S. mansoni adult worms): Inactive

Compound: C/C(=N\Nc1ccnc2cc(Cl)ccc12)c1ccc(O)cc1 [GPQF-8Q17, 4-{(1E)-1-[2-(7-chloroquinolin-4-yl)hydrazinylidene]ethyl}phenol]
Activity against 49-day-old S. mansoni worms at 50 µM (S. mansoni adult worms): Inactive

melting point: 310 °C (dec.)
Compound: C/C(=N\Nc1ccnc2cc(Cl)ccc12)c1ccc(C)cc1 [GPQF-8Q18, 7-Chloro-4-{(2E)-2-[1-(4-methylphenyl)ethylidene]hydrazinyl}quinoline]
Activity against 49-day-old S. mansoni worms at 50 µM (S. mansoni adult worms): Inactive

melting point: 300 to 304 °C
Compound: CCc1ccc(/C(C)=N/Nc2ccnc3cc(Cl)ccc23)cc1 [GPQF-8Q19, 7-Chloro-4-{(2E)-2-[1-(4-ethylphenyl)ethylidene]hydrazinyl}quinoline]
Activity against 49-day-old S. mansoni worms at 50 µM (S. mansoni adult worms): Inactive

melting point: 294 to 298 °C
Compound: C/C(=N\Nc1ccnc2cc(Cl)ccc12)c1ccc(Cl)c(Cl)c1 [GPQF-8Q20, 7-Chloro-4-{(2E)-2-[1-(3,4-dichlorophenyl)ethylidene]hydrazinyl}quinoline]
Activity against 49-day-old S. mansoni worms at 50 µM (S. mansoni adult worms): Inactive

melting point: 161 to 166 °C
Compound: C/C(CCc1ccccc1)=N\Nc1ccnc2cc(Cl)ccc12 [GPQF-8Q21, 7-Chloro-4-[(2E)-2-(4-phenylbutan-2-ylidene)hydrazinyl]quinoline]
Activity against 49-day-old S. mansoni worms at 50 µM (S. mansoni adult worms): Inactive

melting point: 71 to 74 °C
Compound: CC/C(C)=N/Nc1ccnc2cc(Cl)ccc12 [GPQF-8Q22, 4-[(2E)-2-(butan-2-ylidene)hydrazinyl]-7-chloroquinoline]
Activity against 49-day-old S. mansoni worms at 50 µM (S. mansoni adult worms): Inactive

melting point: 250 °C (dec.)
Compound: CCC/C(C)=N/Nc1ccnc2cc(Cl)ccc12 [GPQF-8Q23, 7-Chloro-4-[(2E)-2-(pentan-2-ylidene)hydrazinyl]quinoline]
Activity against 49-day-old S. mansoni worms at 50 µM (S. mansoni adult worms): Inactive

melting point: 228 to 232 °C
Compound: C/C(=N\Nc1ccnc2cc(Cl)ccc12)C(C)(C)C [GPQF-8Q25, 7-Chloro-4-[(2E)-2-(3,3-dimethylbutan-2-ylidene)hydrazinyl]quinoline]
Activity against 49-day-old S. mansoni worms at 50 µM (S. mansoni adult worms): Inactive

melting point: 290 to 292 °C
Compound: C/C(=N\Nc1ccnc2cc(Cl)ccc12)c1ccc(Cl)cc1 [GPQF-8Q26, 7-Chloro-4-{(2E)-2-[1-(4-chlorophenyl)ethylidene]hydrazinyl}quinoline]
Activity against 49-day-old S. mansoni worms at 50 µM (S. mansoni adult worms): Inactive

Compound: Cc1ccc(/C=N/NC(N)=S)cc1 [II]
IC50 [2]: 2.5 µM

Compound: NC(=S)N/N=C/c1ccc[nH]1 [IV]
IC50 ([2]; unit inferred): 6.8 µM

Compound: c1ccc([C@H]2CN3CCSC3=N2)cc1 [LVM, levamisole, reference compound]
Survival percentage of C. elegans (Caenorhabditis elegans; 10 μM): 0%

Compound: COc1ccc(-c2cnc(N/N=C/N3C(=O)c4ccccc4C3=O)s2)cc1 [LpQM-45]
IC50 (worm motility, pairing, oviposition study) [3]: 32.09 µg/mL (≈ 84.8 µM)

Compound: O=C(C1CCCCC1)N1CC(=O)N2CCc3ccccc3C2C1 (stereo not shown) [PZQ, praziquantel, reference compound]
SI (selectivity index) (Vero cells): > 200 | CC50 at 72 h [1]: > 200 µM | EC50 (S. mansoni adult worms; [4]): 1 µM | EC50 (S. mansoni adult worms; [5]): 0.7 µM

Compound: NC(=S)N/N=C/c1ccncc1 [V]
IC50 ([2]; unit inferred): 42.4 µM
